The source made the active and inactive calls. The rule behind the calls is not given here.
How the values were obtained:
Staphylococcus aureus [1] = assay: Antibacterial activity against Staphylococcus aureus ATCC 6538 infected in BALB/c mouse assessed as inhibition of bacterial colonization on wounded skin at 0.5 mg/ml applied on skin and measured after 2 hrs relative to control; format: functional
Staphylococcus aureus [2] = assay: Antibacterial activity against methicillin-resistant Staphylococcus aureus 11 assessed as inhibition of bacterial growth incubated for 24 hrs by tube microdilution assay; format: functional
Staphylococcus aureus [3] = assay: Antibacterial activity against methicillin-resistant Staphylococcus aureus 22 assessed as inhibition of bacterial growth incubated for 24 hrs by tube microdilution assay; format: functional
Pseudomonas aeruginosa [4] = assay: Bactericidal activity against Pseudomonas aeruginosa ATCC 27853 assessed as elimination of bacterial cells at 5X to 10XMIC measured within 3 hrs by killing kinetic assay; format: functional
Staphylococcus aureus [5] = assay: Induction of bacterial cell rupture in Staphylococcus aureus ATCC 6538 assessed as membrane rupture, roughening and blebbing of membrane at 5XMIC measured after 30 mins by transmission electron microscopy; format: functional, organism-based
Staphylococcus aureus [6] = assay: Ratio of MIC for antibacterial activity against Staphylococcus aureus ATCC 6538 measured following incubation of drug with mouse plasma for 8 hrs to MIC for antibacterial activity against Staphylococcus aureus ATCC 6538; format: functional
Staphylococcus aureus [7] = assay: Antibiofilm activity against Staphylococcus aureus ATCC 6538 assessed as inhibition of biofilm formation at 1X to 10XMIC incubated for 24 hrs by crystal violet staining based analysis; format: functional, organism-based
Pseudomonas aeruginosa [8] = assay: Bactericidal activity against Pseudomonas aeruginosa ATCC 27853 assessed as elimination of bacterial cells at 5XMIC measured within 1 hr by killing kinetic assay; format: functional
Pseudomonas aeruginosa [9] = assay: Bactericidal activity against Pseudomonas aeruginosa ATCC 27853 assessed as bacterial cell killing measured after 60 passages; format: functional, organism-based
Pseudomonas aeruginosa [10] = assay: Antibiofilm activity against preformed Pseudomonas aeruginosa ATCC 27853 biofilms assessed as biofilm eradication at 1X to 10XMIC incubated for 24 hrs by crystal violet staining based analysis; format: functional, organism-based
Staphylococcus aureus [11] = assay: Antibacterial activity against Staphylococcus aureus 220823 assessed as inhibition of bacterial growth incubated for 24 hrs by tube microdilution assay; format: functional
Staphylococcus aureus [12] = assay: Antibacterial activity against Staphylococcus aureus 15775 assessed as inhibition of bacterial growth incubated for 24 hrs by tube microdilution assay; format: functional
Acinetobacter baumannii [13] = assay: Antipersister-activity against Acinetobacter baumannii ATCC 19606 assessed as elimination of persister cells preincubated adherent persistent cells with colistin for 24 hrs followed by incubation with drug for 12 hrs; format: functional, organism-based
Acinetobacter baumannii [14] = assay: Antibacterial activity against Acinetobacter baumannii 19110 assessed as inhibition of bacterial growth incubated for 24 hrs by tube microdilution assay; format: functional
Staphylococcus aureus [15] = assay: Antibacterial activity against Staphylococcus aureus ATCC 6538 assessed as inhibition of bacterial growth by tube microdilution assay; format: functional
Pseudomonas aeruginosa [16] = assay: Antibacterial activity against Pseudomonas aeruginosa 52097 assessed as inhibition of bacterial growth incubated for 24 hrs by tube microdilution assay; format: functional
Cell membrane = assay: Induction of membrane permeabilization in Staphylococcus aureus ATCC 6538 assessed as increase in fluorescence intensity at 1X to 10XMIC measured for 90 mins by propidium iodide staining based fluorescence analysis; format: subcellular
Staphylococcus aureus [17] = assay: Bactericidal activity against Staphylococcus aureus ATCC 6538 assessed as bacterial cell killing measured after 35 passages; format: functional, organism-based
Escherichia coli = assay: Antibacterial activity against Escherichia coli 1007 assessed as inhibition of bacterial growth incubated for 24 hrs by tube microdilution assay; format: functional
Acinetobacter baumannii [18] = assay: Antibiofilm activity against Acinetobacter baumannii ATCC 19606 assessed as inhibition of biofilm formation at 1X to 10XMIC incubated for 24 hrs by crystal violet staining based analysis; format: functional, organism-based

H-RRGIKKFIKKVKKVKKAI-OH
inhibition in vivo at 500 µg/mL (Staphylococcus aureus [1]): 71.8% | MIC (Staphylococcus aureus [2]): 2.34 µg/mL | MIC (Staphylococcus aureus [3]): 2.34 µg/mL | Activity (Pseudomonas aeruginosa [4]): 100% | Activity (Staphylococcus aureus [5]): Active; Roughening And Blebbing Of Membrane Is Less Pronounced Than In Pseudomonas Aeruginosa | Ratio (Staphylococcus aureus [6]): 4 | Activity (Staphylococcus aureus [7]): Dose-dependent-effect | Activity (Pseudomonas aeruginosa [8]): 96.6% | Activity (Pseudomonas aeruginosa [9]): Active | Activity (Pseudomonas aeruginosa [10]): Active | MIC (Staphylococcus aureus [11]): 2.34 µg/mL | MIC (Staphylococcus aureus [12]): 2.34 µg/mL | Activity (Acinetobacter baumannii [13]): Dose-dependent-effect | MIC (Acinetobacter baumannii [14]): 2.34 µg/mL | MIC (Staphylococcus aureus [15]): 2.34 µg/mL | MIC (Pseudomonas aeruginosa [16]): 1.17 µg/mL | Activity (Cell membrane): Dose-dependent-effect | Activity (Staphylococcus aureus [17]): Active | MIC (Escherichia coli): 9.37 µg/mL | Activity (Acinetobacter baumannii [18]): Dose-dependent-effect
